From article PMC12610274, “Identification of Marrubiin as a Cathepsin C Inhibitor for Treating Rheumatoid Arthritis” (Molecules, 2025)

Columns and labels:
[1] = biological target: T1, intracellular CTSC (Homo sapiens, UniProt P53634); experiment: CTSC cell-based assay using the U937 cell line; settings: read-out: Cell-Based Enz (IC50: nM)
T1 construct: endogenous in cells; host or cells: U937
Protocol: Cell-based CTSC enzymatic activity assays were performed in 96-well clear-bottom black microplates. […] The detection substrate, H-Gly-Arg-AFC, was diluted to 100 µM in serum-free medium and stored for later use. U937 cells in the logarithmic growth phase were harvested, washed with PBS, and counted. A single-cell suspension was prepared at a density of 1.0 × 10^6 cells/mL using serum-free medium. 30 µL of cell suspension was seeded into each well of the 96-well plate. To the test wells, 10 µL of the compound working solution was added, while 10 µL of serum-free medium was added to the control wells. The plate was pre-incubated in a cell culture incubator at 37 °C for 3 h. Subsequently, 10 µL of H-Gly-Arg-AFC was added to initiate the enzymatic reaction, and the plate was further incubated at 37 °C for 1 h. Fluorescence measurements were performed using a multimode microplate reader at excitation/emission wavelengths of 400/505 nm. Each group of tests was independently repeated at least 3 times, and IC50 values were calculated using SPSS 10.0.

[2] = Cytotoxicity assay, U937 cell line; type: cell-based; settings: human, U937 cells
Protocol: (§1) RAW264.7 cells and U937 cells in the logarithmic growth phase were counted and diluted, and the concentrations of the single-cell suspensions of the two types of cells were adjusted to 5 × 10^4 cells/mL and 3 × 10^4 cells/mL, respectively. After thorough mixing, the cells were seeded into a 96-well plate, with 100 μL of cell suspension added to each well. Prepare the working solution of test compounds using the corresponding medium as the solvent, with the concentration of working solution being 2 times the final test concentration (2.5 μM, 5 μM, 10 μM, 20 μM, and 40 μM). Twenty-four hours after cell seeding, the compound working solutions were added to the compound test wells, and the same volume of medium was added to the negative control wells, followed by continuous incubation for another 24 h. Only the wells with the same volume but without cells served as the blank control group. The CellTiter-Lumi™ luminescent cell viability assay kit (Beyotime Biotechnology, Shanghai, China, C0065XL) was used to detect cell viability according to the standard operating procedures. Each group of tests was independently repeated at least 3 times, and IC50 values were calculated using SPSS 10.0.

[3] = Cytotoxicity assay, RAW264.7 cell line; type: cell-based; settings: mouse, RAW264.7 cells
Protocol: as §1

[4] = biological target: T2, CTSC (Homo sapiens, UniProt P53634); experiment: Human recombinant CTSC isolated enzyme assay; type: biochemical; parameters: purchased R&D Systems; settings: human recombinant CTSC, cell-free, 12-point dose-response; read-out: CTSC Enz (IC50: nM)
Protocol: Both recombinant CTSL and CTSC for in vitro cell-free-based enzymatic activity assay can be purchased from R&D Systems (Minneapolis, MN, USA), a biotechnology company. According to the standardized procedures and material ratios provided by R&D Systems, prepare the activation solution (25 mM MES + 5 mM DTT, pH 6.0) and the assay solution (25 mM MES + 50 mM NaCl + 5 mM DTT, pH 6.0) in advance for later use. Dilute the detection substrate H-Gly-Arg-AMC to a 200 µM solution with the assay solution for standby. Prepare the working solution of compounds to be tested using the assay solution, with the concentration of working solution being 10 times the final test concentration. Dilute CTSC and CTSL, respectively, with cold activation solution. Thoroughly mix the two activation solutions containing the proteins to achieve final concentrations of 300 nM for CTSL and 440 nM for CTSC. After co-incubation for 1 h, the activated CTSC treated with CTSL can be used for the enzymatic activity inhibition efficacy test of compounds. Dilute the activated CTSC to 4.4 nM with cold assay buffer. Incubate 4 μL of the activated CTSC with 1 μL of the compound working solution (test group) or 1 μL of blank assay solution (control group) at room temperature for 3 h. Then, add 5 μL of the detection substrate to achieve a final concentration of 100 μM. Mix 5 µL each of the assay solution and the substrate solution as the blank group. After 1 h, the absorbance of detection substrate was measured using a multifunctional microplate reader at excitation/emission wavelengths of 380 nm/460 nm. The inhibitory efficacy of molecules on enzyme activity was calculated based on the absorbance difference between test group and control group. […] Each group of tests mentioned above was independently repeated at least 3 times, and IC50 values were calculated using SPSS 10.0.
Target sequence in this assay (P53634 25-134 limits assumed): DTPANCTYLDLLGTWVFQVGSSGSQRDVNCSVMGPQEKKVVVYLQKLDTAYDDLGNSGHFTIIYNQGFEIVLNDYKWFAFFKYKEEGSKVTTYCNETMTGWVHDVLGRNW
Target sequence in this assay (P53634 231-394 limits assumed): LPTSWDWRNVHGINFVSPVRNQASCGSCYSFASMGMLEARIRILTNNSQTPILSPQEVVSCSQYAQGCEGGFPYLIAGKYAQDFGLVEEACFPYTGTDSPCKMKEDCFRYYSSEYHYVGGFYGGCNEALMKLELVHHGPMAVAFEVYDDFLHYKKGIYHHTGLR
Target sequence in this assay (P53634 395-463 limits assumed): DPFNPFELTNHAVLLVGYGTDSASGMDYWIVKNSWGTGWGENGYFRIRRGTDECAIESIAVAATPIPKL

[5] = test system: NE; experiment: NSPs activity in U937 cells after 5 days of treatment, NE; type: cell-based, human; settings: U937, 10 μM
Protocol: (§2) U937 cells in the logarithmic growth phase were collected and equally divided into six portions. Four of these portions were treated with DMSO solutions of the test compound at varying concentrations to achieve final concentrations of 1.25, 2.5, 5, and 10 μM, respectively. An equal volume of DMSO was added to one portion as a blank control, while another portion treated with a DMSO solution of AZD7986 served as a positive control. The cells were cultured under standard U937 conditions for 5 consecutive days, with daily medium changes and fresh compound treatments administered using the same protocol. Following 5 days of treatment, cells were harvested, washed twice thoroughly with phosphate-buffered saline, and lysed in phosphate-buffered saline containing 1% Triton X-100. The lysates were centrifuged to collect the supernatant, and protein concentrations were determined as previously described to ensure equal total protein loading across all samples. The prepared samples were stored at −20 °C until further analysis. Different assay buffers were prepared for diluting samples and measuring the activities of specific NSPs: a buffer containing 50 mM Tris and 750 mM NaCl (pH 7.4) was used for NE and PR3; a buffer containing 50 mM Tris, 750 mM NaCl, 5 mM EDTA (pH 7.4) was used for Cat G; and a buffer containing 25 mM MES, 50 mM NaCl, 5 mM DTT (pH 6.0) was used for CTSC. […]

[6] = test system: PR3; experiment: NSPs activity in U937 cells after 5 days of treatment, PR3; type: cell-based, human; settings: U937, 10 μM
Protocol: as §2

[7] = test system: Cat G; experiment: NSPs activity in U937 cells after 5 days of treatment, Cat G; type: cell-based, human; settings: U937, 10 μM
Protocol: as §2

[8] = biological target: T3, CTSC (Mus musculus, UniProt P97821); experiment: CTSC activity in blood and bone marrow of mice; type: in vivo, C57BL/6 mice; settings: 30 mg/kg daily gavage, 7 days
T3 construct: from tissue; host or cells: mouse blood and bone marrow lysates
T3 sequence (P97821 25-462): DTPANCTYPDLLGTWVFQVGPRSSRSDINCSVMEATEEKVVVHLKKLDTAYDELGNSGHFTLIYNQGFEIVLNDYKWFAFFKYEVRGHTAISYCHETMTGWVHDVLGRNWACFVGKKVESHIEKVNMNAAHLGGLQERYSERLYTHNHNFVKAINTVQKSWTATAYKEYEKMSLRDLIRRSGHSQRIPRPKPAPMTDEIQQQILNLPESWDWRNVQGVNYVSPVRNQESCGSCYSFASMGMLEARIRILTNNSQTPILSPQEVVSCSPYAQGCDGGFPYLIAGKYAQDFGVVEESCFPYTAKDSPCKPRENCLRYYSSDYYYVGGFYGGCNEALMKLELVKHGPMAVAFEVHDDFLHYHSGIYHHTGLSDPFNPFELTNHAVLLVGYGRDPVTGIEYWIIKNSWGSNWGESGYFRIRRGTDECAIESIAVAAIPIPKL
Protocol: (§3) A total of 25 C57BL/6 mice (6–8 weeks old, weighing approximately 20 g, with equal numbers of males and females) were randomly divided into five groups. Mice in the compound-treated groups were orally administered the compound once daily at doses of 0.3, 3, and 30 mg/kg for 7 consecutive days. […] Mice in the normal group were given an equal volume of normal saline at the same time points. The body weight, death rate, and behavior were observed and recorded daily for one week. After 7 days, bone marrow and blood samples were collected from the mice and lysed using 8% Triton X-100 buffer. The lysates were stored at −20 °C until testing. The activity assays for CTSC and NSPs were performed as described above. The mice were anesthetized and the tissues were taken for H&E staining.

[9] = test system: NE; experiment: NE activity in blood and bone marrow of mice; type: in vivo, C57BL/6 mice; settings: 30 mg/kg daily gavage, 7 days
Protocol: as §3

[10] = test system: PR3; experiment: PR3 activity in blood and bone marrow of mice; type: in vivo, C57BL/6 mice; settings: 30 mg/kg daily gavage, 7 days
Protocol: as §3

[11] = test system: Cat G; experiment: Cat G activity in blood and bone marrow of mice; type: in vivo, C57BL/6 mice; settings: 30 mg/kg daily gavage, 7 days
Protocol: as §3

[12] = test system: AIA model; experiment: Adjuvant-induced arthritis (AIA) model, disease severity; type: in vivo, Sprague-Dawley rats; settings: rat AIA
Protocol: (§4) Thirty 4-week-old male Sprague-Dawley rats (weighing 120–130 g) were randomly divided into 6 groups (5 rats per group) after 1 week of adaptive feeding, namely the normal group, model group, low-dose experimental group (15 mg/kg), medium-dose experimental group (30 mg/kg), high-dose experimental group (60 mg/kg), and positive control group (30 mg/kg). Starting from Day 0 of the experiment, rats in the administration groups and model group were injected intradermally with 0.1 mL of CFA into the left hind paw to induce AIA, while rats in the normal group were injected intradermally with an equal volume (0.1 mL) of normal saline as a control. After 13 consecutive days of feeding, rats treated with CFA successfully developed typical AIA symptoms. […] During the experiment, the body weight, mental state, activity ability, hair color changes, and paw appearance changes of the rats were observed and recorded daily. In addition, on Day 0 of the experiment (baseline period), the basic paw volume of all rats was accurately measured using a plethysmometer, which served as a reference standard for subsequent evaluation of inflammation severity. From Day 13 to Day 28 of the experiment, the paw volume of the rats was measured repeatedly every 3 days. The degree of paw swelling was quantified by calculating the change in paw volume relative to the baseline. Meanwhile, the arthritis index score was calculated based on the range of paw redness and swelling, the severity of swelling, and the degree of limb movement limitation, so as to comprehensively evaluate the inflammatory state. On Day 28 of the experiment (the end of the administration cycle), blood samples were collected via abdominal aortic puncture. The blood samples were centrifuged at 3000 rpm for 20 min, and the upper serum was collected and stored at −20 °C for subsequent detection. The rats were then sacrificed, and their ankle joint tissues were harvested for subsequent pathological section observation and analysis. The cytokine levels in serum were measured. The activity detection of CTSC and NSPs was carried out according to the above methods.

[13] = biological target: T4, CTSC (Rattus norvegicus, UniProt P80067); experiment: AIA model, serum CTSC activity; type: in vivo, Sprague-Dawley rats; settings: 30 mg/kg gavage, 15 days
T4 construct: from tissue; host or cells: serum of Sprague-Dawley rats (AIA model)
T4 sequence (P80067 25-462): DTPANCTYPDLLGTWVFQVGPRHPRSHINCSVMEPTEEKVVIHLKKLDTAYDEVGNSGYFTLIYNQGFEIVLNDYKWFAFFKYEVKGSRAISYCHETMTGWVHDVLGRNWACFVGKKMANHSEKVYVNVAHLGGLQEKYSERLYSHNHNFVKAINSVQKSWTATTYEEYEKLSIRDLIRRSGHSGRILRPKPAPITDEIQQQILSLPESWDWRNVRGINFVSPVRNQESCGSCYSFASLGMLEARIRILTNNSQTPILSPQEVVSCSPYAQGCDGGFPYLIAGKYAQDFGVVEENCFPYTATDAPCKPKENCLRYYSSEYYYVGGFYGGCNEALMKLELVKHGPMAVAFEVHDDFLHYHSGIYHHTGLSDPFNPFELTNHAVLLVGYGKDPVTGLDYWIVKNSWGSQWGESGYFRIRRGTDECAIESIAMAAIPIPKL
Protocol: as §4, with “Meanwhile, the arthritis index score was calculated based on the range of paw redness and swelling, the severity of swelling, and the degree of limb movement limitation, so as to comprehensively evaluate the inflammatory state. On Day 28 of the experiment (the end of the administration cycle), blood samples were collected via abdominal aortic puncture. The blood samples were centrifuged at 3000 rpm for 20 min, and the upper serum was collected and stored at −20 °C for subsequent detection. The rats were then sacrificed, and their ankle joint tissues were harvested for subsequent pathological section observation and analysis.” left out, “The activity detection of CTSC and NSPs was carried out according to the above methods.” left out

[14] = test system: NE; experiment: AIA model, serum NE activity; type: in vivo, Sprague-Dawley rats; settings: rat AIA, 30 mg/kg gavage, 15 days
Protocol: as §4, with “Meanwhile, the arthritis index score was calculated based on the range of paw redness and swelling, the severity of swelling, and the degree of limb movement limitation, so as to comprehensively evaluate the inflammatory state. On Day 28 of the experiment (the end of the administration cycle), blood samples were collected via abdominal aortic puncture. The blood samples were centrifuged at 3000 rpm for 20 min, and the upper serum was collected and stored at −20 °C for subsequent detection. The rats were then sacrificed, and their ankle joint tissues were harvested for subsequent pathological section observation and analysis.” left out, “The activity detection of CTSC and NSPs was carried out according to the above methods.” left out

[15] = test system: PR3; experiment: AIA model, serum PR3 activity; type: in vivo, Sprague-Dawley rats; settings: rat AIA, 30 mg/kg gavage, 15 days
Protocol: as §4, with “Meanwhile, the arthritis index score was calculated based on the range of paw redness and swelling, the severity of swelling, and the degree of limb movement limitation, so as to comprehensively evaluate the inflammatory state. On Day 28 of the experiment (the end of the administration cycle), blood samples were collected via abdominal aortic puncture. The blood samples were centrifuged at 3000 rpm for 20 min, and the upper serum was collected and stored at −20 °C for subsequent detection. The rats were then sacrificed, and their ankle joint tissues were harvested for subsequent pathological section observation and analysis.” left out, “The activity detection of CTSC and NSPs was carried out according to the above methods.” left out

[16] = test system: Cat G; experiment: AIA model, serum Cat G activity; type: in vivo, Sprague-Dawley rats; settings: rat AIA, 30 mg/kg gavage, 15 days
Protocol: as §4, with “Meanwhile, the arthritis index score was calculated based on the range of paw redness and swelling, the severity of swelling, and the degree of limb movement limitation, so as to comprehensively evaluate the inflammatory state. On Day 28 of the experiment (the end of the administration cycle), blood samples were collected via abdominal aortic puncture. The blood samples were centrifuged at 3000 rpm for 20 min, and the upper serum was collected and stored at −20 °C for subsequent detection. The rats were then sacrificed, and their ankle joint tissues were harvested for subsequent pathological section observation and analysis.” left out, “The activity detection of CTSC and NSPs was carried out according to the above methods.” left out

[17] = biological target: T2, CTSC; experiment: CTSC activity in U937 cells after 5 days of treatment; type: cell-based; parameters: endogenous in cells; host or cells: U937; settings: U937, 5 days, marrubiin and AZD7986 at the same concentration
Protocol: as §2
Target sequence in this assay (P53634 25-463): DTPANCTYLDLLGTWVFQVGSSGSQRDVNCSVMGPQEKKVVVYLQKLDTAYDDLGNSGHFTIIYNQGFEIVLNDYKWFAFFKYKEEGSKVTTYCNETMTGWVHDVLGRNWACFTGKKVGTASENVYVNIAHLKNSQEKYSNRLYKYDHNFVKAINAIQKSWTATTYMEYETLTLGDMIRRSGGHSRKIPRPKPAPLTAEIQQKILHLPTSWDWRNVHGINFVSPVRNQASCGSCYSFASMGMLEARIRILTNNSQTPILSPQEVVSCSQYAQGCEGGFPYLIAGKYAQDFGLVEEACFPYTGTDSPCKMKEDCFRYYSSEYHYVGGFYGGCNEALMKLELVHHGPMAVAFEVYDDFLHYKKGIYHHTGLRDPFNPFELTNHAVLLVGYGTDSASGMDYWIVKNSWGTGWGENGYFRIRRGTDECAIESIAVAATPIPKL

T1 sequence (P53634 25-463): as above

N[C@H]1CONC1=O [L-Cycloserine, L-cycloserine]
IC50 [1]: > 5000 nM | IC50 at 24 h [2]: > 10 µM | IC50 at 24 h [3]: > 10 µM | IC50 [4]: 1101 ± 2 nM

CC1(C)CC[C@]2(C(=O)O)[C@H](O)C[C@]3(C)C(=CC[C@@H]4[C@@]5(C)CC[C@H](O)[C@@](C)(C=O)[C@@H]5CC[C@]43C)[C@@H]2C1 [Quillaic acid, quillaic acid]
IC50 [1]: > 5000 nM | IC50 at 24 h [2]: > 10 µM | IC50 at 24 h [3]: > 10 µM | IC50 [4]: 125 ± 2.9 nM

Cn1c(=O)oc2ccc(-c3ccc(C[C@@H](C#N)NC(=O)[C@@H]4CNCCCO4)cc3)cc21 [AZD7986, reference compound]
IC50 at 24 h [2]: > 10 µM | IC50 at 24 h [3]: > 10 µM | NE activity, % of DMSO group [5]: 5.1% | PR3 activity, % of DMSO group [6]: 8.1% | Cat G activity, % of DMSO group [7]: 12.7% | remaining activity rate of CTSC ([8]; blood): ~18.3% | remaining activity rate of CTSC ([8]; bone marrow): approximately 10.6% | remaining activity rate of NE ([9]; blood): ~8.1% | remaining activity rate of NE ([9]; bone marrow): ~11.7% | remaining activity rate of PR3 ([10]; blood): ~10.3% | remaining activity rate of PR3 ([10]; bone marrow): ~15.8% | remaining activity rate of Cat G ([11]; blood): ~35.2% | remaining activity rate of Cat G ([11]; bone marrow): ~30.5% | histopathology of ankle joints (H&E, Safranin O/Fast Green) ([12]; 30 mg/kg): reduced the histopathological statement | clinical score vs AIA model group ([12]; 30 mg/kg gavage, from day 16 onwards): significantly lower than those of AIA model group | volume and thickness of inflamed paws ([12]; 30 mg/kg, days 16 to 28): continuous reduction in volume and a gradual decrease in thickness | body weight recovery ([12]; 30 mg/kg, from day 16 onwards): most significant weight recovery effects | serum CTSC activity, % of control group [13]: approximately 35% | serum NE activity, % of control group [14]: ~30% | serum PR3 activity, % of control group [15]: ~40% | serum Cat G activity, % of control group [16]: approximately 58% | residual CTSC activity [17]: less than 8%
